US20050175550A1, “Compositions for oral use” (priority 2000, published 2005)
≈ marks a conversion by molar mass, not a printed value.

How the values were obtained:
Experiment in all cases: MIC by agar plate dilution method on standard strains (Example 3)
Format in all cases: cell-based
Conditions in all cases: read-out: MIC
[1] = tested on: Streptococcus agalactiae ATCC13813
Method: (§1) Drug solutions at a concentration 10 times as high as the maximum applicable concentration were prepared as original solutions of test drugs given in Table 2 (as to solvents used for this purpose, reference should be made also to Table 2). Serial two-fold dilution series of the original solutions were prepared at desired stages, and 1 ml each of the diluted drug solutions was added to 9 ml of media given in Table 3 to prepare drug plates. […] • 1) Bacterial solutions stocked at −80° C. were inoculated on agar media (as to media used, reference should be made to Table 3), and then incubated at 37° C. overnight. When desired, subculturing was conducted once more on the same agar media (by overnight incubation at 37° C.). • 2) Colonies growing on the agar media were sampled by a platinum loop, suspended in liquid media (reference should be made to Table 3) and statically incubated at 37° C. for 18 hours (preculturing). • 3) Preculturing was continued up to McFarland 0.5 (McFarland 0.5=about 10^8 CFU/ml), and then the culture broths were diluted with Muellar Hinton Broth to make 10^6 CFU/ml. 5 μl each of the diluted solutions were inoculated on the above-mentioned drug plates by an inoculator Microplanter. […] Thus, bacterial solutions at about 10^8 CFU/ml can be easily prepared by use of McFarland 0.5. Bacterial solutions at such a turbidity are commercially available, but can be easily prepared.

[2] = tested on: Streptococcus pneumoniae ATCC6302
Method: as §1

[3] = tested on: Enterococcus faecium ATCC19434
Method: as §1

[4] = tested on: Moraxella (Branhamella) catarrhalis ATCC43617
Method: as §1

[5] = tested on: Pseudomonas aeruginosa ATCC27853
Method: as §1

[6] = tested on: Staphylococcus aureus ATCC29247
Method: as §1

[7] = tested on: Haemophilus influenzae ATCC49766
Method: as §1

[8] = tested on: Streptococcus pyogenes ATCC12385
Method: as §1

[9] = tested on: Streptococcus pyogenes ATCC12344
Method: as §1

[10] = tested on: Streptococcus pneumoniae ATCC6303
Method: as §1

[11] = tested on: Staphylococcus aureus ATCC6538P
Method: as §1

[12] = tested on: Micrococcus luteus ATCC9341
Method: as §1

[13] = tested on: Streptococcus pneumoniae ATCC49619
Method: as §1

[14] = tested on: Klebsiella pneumoniae ATCC700603
Method: as §1

[15] = tested on: Escherichia coli ATCC35218
Method: as §1

MIC [1]: 0.05 µg/mL (≈ 0.0668 µM)
MIC [2]: 0.1 µg/mL (≈ 0.134 µM)
MIC [3]: 1.56 µg/mL (≈ 2.09 µM)
MIC [4]: 0.2 µg/mL (≈ 0.267 µM)
MIC [5]: > 100 µg/mL
MIC [6]: 50 µg/mL (≈ 66.8 µM)
MIC [7]: 6.25 µg/mL (≈ 8.36 µM)
MIC [8]: 0.1 µg/mL (≈ 0.134 µM)
MIC [9]: 0.05 µg/mL (≈ 0.0668 µM)
MIC [10]: 0.05 µg/mL (≈ 0.0668 µM)
MIC [11]: 0.2 µg/mL (≈ 0.267 µM)
MIC [12]: 0.05 µg/mL (≈ 0.0668 µM)
MIC [13]: 0.05 µg/mL (≈ 0.0668 µM)
MIC [14]: > 100 µg/mL
MIC [15]: 25 µg/mL (≈ 33.4 µM)
Structure (SMILES): CC[C@H]1OC(=O)[C@H](C)[C@@H](O[C@H]2C[C@@](C)(OC)[C@@H](O)[C@H](C)O2)[C@H](C)[C@@H](O[C@@H]2O[C@H](C)C[C@H](N(C)C)[C@H]2O)[C@](C)(OC)C[C@@H](C)C(=O)[C@H](C)[C@@H](O)[C@]1(C)O [CAM, Clarithromycin]
